Measurements: the NIST ThermoML archive (doi:10.1016/j.jct.2013.12.028)
± gives the expanded uncertainty stated by the source.

Test: mn = molality of the nth substance listed, in mol/kg
Settings: 101.3 kPa, Liquid, Vibrating tube method

C1CCOC1 [tetrahydrofuran] + O
mass density [kg/m3]
Settings | 278.15 K | 283.15 K | 288.15 K | 293.15 K | 298.15 K | 303.15 K | 308.15 K | 313.15 K | 318.15 K
m1 = 0.06882 | 999.729 ± 0.11 | 999.439 ± 0.11 | 998.826 ± 0.11 | 997.918 ± 0.11 | 996.743 ± 0.11 | 995.331 ± 0.11 | 993.701 ± 0.11 | 991.864 ± 0.11 | 989.851 ± 0.11
m1 = 0.1028 | 999.619 ± 0.11 | 999.317 ± 0.11 | 998.697 ± 0.11 | 997.78 ± 0.11 | 996.596 ± 0.11 | 995.178 ± 0.11 | 993.538 ± 0.11 | 991.694 ± 0.11 | 989.672 ± 0.11
m1 = 0.2158 | 999.282 ± 0.11 | 998.938 ± 0.11 | 998.289 ± 0.11 | 997.343 ± 0.11 | 996.13 ± 0.11 | 994.687 ± 0.11 | 993.021 ± 0.11 | 991.146 ± 0.11 | 989.097 ± 0.11
m1 = 0.3098 | 999.036 ± 0.11 | 998.655 ± 0.11 | 997.977 ± 0.11 | 997.003 ± 0.11 | 995.764 ± 0.11 | 994.293 ± 0.11 | 992.601 ± 0.11 | 990.703 ± 0.11 | 988.631 ± 0.11
m1 = 0.4199 | 998.781 ± 0.11 | 998.36 ± 0.11 | 997.637 ± 0.11 | 996.629 ± 0.11 | 995.359 ± 0.11 | 993.859 ± 0.11 | 992.137 ± 0.11 | 990.208 ± 0.11 | 988.102 ± 0.11
m1 = 0.5704 | 998.489 ± 0.11 | 997.999 ± 0.11 | 997.225 ± 0.11 | 996.162 ± 0.11 | 994.84 ± 0.11 | 993.293 ± 0.11 | 991.526 ± 0.11 | 989.552 ± 0.11 | 987.402 ± 0.11
m1 = 0.7194 | 998.255 ± 0.11 | 997.698 ± 0.11 | 996.863 ± 0.11 | 995.741 ± 0.11 | 994.361 ± 0.11 | 992.771 ± 0.11 | 990.96 ± 0.11 | 988.935 ± 0.11 | 986.735 ± 0.11
m1 = 0.8767 | 998.059 ± 0.11 | 997.427 ± 0.11 | 996.519 ± 0.11 | 995.333 ± 0.11 | 993.894 ± 0.11 | 992.247 ± 0.11 | 990.382 ± 0.11 | 988.304 ± 0.11 | 986.049 ± 0.11
m1 = 1.04 | 997.903 ± 0.11 | 997.18 ± 0.11 | 996.19 ± 0.11 | 994.935 ± 0.11 | 993.435 ± 0.11 | 991.725 ± 0.11 | 989.802 ± 0.11 | 987.671 ± 0.11 | 985.363 ± 0.11
m1 = 1.174 | 997.793 ± 0.11 | 997.013 ± 0.11 | 995.964 ± 0.11 | 994.643 ± 0.11 | 993.087 ± 0.11 | 991.324 ± 0.11 | 989.348 ± 0.11 | 987.162 ± 0.11 | 984.803 ± 0.11
m1 = 1.262 | 997.732 ± 0.11 | 996.903 ± 0.11 | 995.814 ± 0.11 | 994.456 ± 0.11 | 992.856 ± 0.11 | 991.065 ± 0.11 | 989.06 ± 0.11 | 986.838 ± 0.11 | 984.443 ± 0.11
m1 = 1.406 | 997.65 ± 0.11 | 996.744 ± 0.11 | 995.581 ± 0.11 | 994.16 ± 0.11 | 992.503 ± 0.11 | 990.648 ± 0.11 | 988.583 ± 0.11 | 986.311 ± 0.11 | 983.864 ± 0.11
m1 = 1.576 | 997.559 ± 0.11 | 996.552 ± 0.11 | 995.314 ± 0.11 | 993.821 ± 0.11 | 992.084 ± 0.11 | 990.16 ± 0.11 | 988.025 ± 0.11 | 985.688 ± 0.11 | 983.169 ± 0.11
